This note sets out measurements from patent publication US10301284B2, “Therapeutic inhibitory compounds” (LifeSci Pharmaceuticals, Inc., priority 2016, dated 2019).

Chain of human Plasma Kallikrein (P03952 391-638 limits assumed): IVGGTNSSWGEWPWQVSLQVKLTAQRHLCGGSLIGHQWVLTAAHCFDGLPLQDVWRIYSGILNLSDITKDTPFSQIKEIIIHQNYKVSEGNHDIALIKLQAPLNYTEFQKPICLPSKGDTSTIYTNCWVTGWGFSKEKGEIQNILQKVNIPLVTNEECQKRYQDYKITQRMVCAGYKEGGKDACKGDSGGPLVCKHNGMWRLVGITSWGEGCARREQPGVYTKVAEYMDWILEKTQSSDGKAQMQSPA
Chain of human Plasma Kallikrein (P03952 20-390 partner limits assumed): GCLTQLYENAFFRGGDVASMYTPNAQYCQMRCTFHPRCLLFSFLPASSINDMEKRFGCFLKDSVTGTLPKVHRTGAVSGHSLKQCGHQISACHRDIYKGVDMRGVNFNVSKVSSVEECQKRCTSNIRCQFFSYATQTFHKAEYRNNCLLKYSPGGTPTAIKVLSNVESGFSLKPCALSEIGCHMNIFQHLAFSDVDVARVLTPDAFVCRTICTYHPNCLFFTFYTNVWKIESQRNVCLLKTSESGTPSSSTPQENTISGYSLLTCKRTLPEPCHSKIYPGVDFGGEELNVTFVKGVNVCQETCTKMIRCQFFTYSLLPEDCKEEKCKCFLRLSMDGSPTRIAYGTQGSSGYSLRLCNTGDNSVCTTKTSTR

One test concerns the target human Plasma Kallikrein (Homo sapiens (Human), UniProt P03952). As to the kind of experiment: In vitro enzyme inhibition of human plasma kallikrein (Pro-Phe-Arg-AMC cleavage). It is filed as biochemical.
Conditions: not given
Here is the method:
The ability of the compounds disclosed herein to inhibit human plasma kallikrein activity was quantified according to the procedures below.
A 10 mM solution of the test compound was made in DMSO. This solution was serially diluted 1:5 in DMSO to yield 2000, 400, 80, 16, 3.2, 0.64, 0.128, 0.0256 and 0.00512 μM compound test solutions. A control tube containing only DMSO is included. 16 μL of each compound test solution was combined with 384 μL of assay buffer (50 mM Tris-HCl pH 7.5, 150 mM NaCl, 0.01% Triton X-100) to yield a “4× test compound buffer stock”.
Separately, a 40 nM solution of human Plasma Kallikrein (Abcam) and a 93.6 μM solution Pro-Phe-Arg-AMC (Bachem) were made using assay buffer. These solutions are hereby referred to as 4×hPK and 2×PFR-AMC, respectively.
60 μL of each 4× test compound buffer stock was combined with 60 μL of 4×hPK to yield 120 μL of “2× test compound buffer stock/2×hPK”. 50 μL was removed from this mixture and placed into duplicate wells on a Microfluor 1Black U-bottom microtiter plate (Thermo Scientific). This plate was incubated for 5 minutes at 37° C. To each well, 50 μL of pre-warmed 2×PFR-AMC was added to start the enzymatic reaction. Cleavage of PFR-AMC was monitored in a Biotek Synergy H4 reader set at 37° C. Readings are taken every 43 seconds for 1 hour. The highest mean velocity over 20 reads (˜15 minutes) is used to calculate the IC50. The IC50 is calculated using the Gen5 (Biotek Instruments).
The ability of the compounds listed in Table 2 to inhibit human plasma kallikrein activity was determined.
Take `Cc1cc(N)nc(C)c1CNC(=O)c1nn(Cc2ccc3ncc(Cl)cc3c2)c2cccc(N)c12` [Example 33, 4-amino-N-((6-amino-2,4-dimethylpyridin-3-yl)methyl)-1-((3-chloroquinolin-6-yl)methyl)-1H-indazole-3-carboxamide]: the IC50 is 0.1 to 1 µM.

The same test, now with this note: human plasma kallikrein, PFR-AMC substrate, 37° C.; read-out: hPK IC50.
Turning to `Cc1cc(N)nc(C)c1CNC(=O)c1cn(Cc2ccc3ncc(Cl)cc3c2)c2ccccc12` [Example 11, N-((6-amino-2,4-dimethylpyridin-3-yl)methyl)-1-((3-chloroquinolin-6-yl)methyl)-1H-indole-3-carboxamide], the IC50 was less than 0.1 µM. Turning to `Cc1cc(N)nc(C)c1CNC(=O)c1c2ccccc2nn1Cc1ccc2ncc(Cl)cc2c1` [Example 14, N-((6-amino-2,4-dimethylpyridin-3-yl)methyl)-2-((3-chloroquinolin-6-yl)methyl)-2H-indazole-3-carboxamide], the 50% inhibitory concentration (IC50) was greater than 10 µM. Take `Cc1cc(N)nc(C)c1CNC(=O)c1nn(Cc2ccc3ncc(Cl)cc3c2)cc1[N+](=O)[O-]` [Example 18, N-((6-amino-2,4-dimethylpyridin-3-yl)methyl)-1-((3-chloroquinolin-6-yl)methyl)-4-nitro-1H-pyrazole-3-carboxamide]: the half-maximal inhibitory concentration (IC50) is less than 0.1 µM. Turning to `Cc1cc(N)nc(C)c1CNC(=O)c1nc(Cc2ccc3ncc(Cl)cc3c2)c2ccccn12` [Example 23, N-((6-amino-2,4-dimethylpyridin-3-yl)methyl)-1-((3-chloroquinolin-6-yl)methyl)imidazo[1,5-a]pyridine-3-carboxamide], the IC50 was less than 0.1 µM. For `Cc1cc(N)nc(C)c1CNC(=O)c1cn(Cc2ccc3ncc(Cl)cc3c2)c2ncnc(N)c12` [Example 34, 4-amino-7-(3-chloro-quinolin-6-ylmethyl)-7H-pyrrolo[2,3-d]pyrimidine-5-carboxylic acid (6-amino-2,4-dimethyl-pyridin-3-ylmethyl)-amide], the concentration for half-maximal inhibition (IC50) was less than 0.1 µM. In the case of `Cc1cc(N)nc(C)c1CNC(=O)c1cnn(Cc2ccc3ncc(Cl)cc3c2)c1C#N` [Example 40, N-((6-amino-2,4-dimethylpyridin-3-yl)methyl)-1-((3-chloroquinolin-6-yl)methyl)-5-cyano-1H-pyrazole-4-carboxamide], the IC50 was 1 to 10 µM. For the molecule `Cc1cc(N)nc(C)c1CNC(=O)c1ncc(Cc2ccc3ncc(Cl)cc3c2)[nH]1` [Example 41, N-((6-amino-2,4-dimethylpyridin-3-yl)methyl)-5-((3-chloroquinolin-6-yl)methyl)-1H-imidazole-2-carboxamide], the IC50 lay in the range of 0.1 to 1 µM. Turning to `O=C(NCc1n[nH]c2ccc(Cl)cc12)c1nnc(Cc2ccc3ncc(Cl)cc3c2)o1` [Example 42, N-((5-chloro-1H-indazol-3-yl)methyl)-5-((3-chloroquinolin-6-yl)methyl)-1,3,4-oxadiazole-2-carboxamide], the IC50 is 0.1 to 1 µM.

Consider `O=C(NCc1ccc2[nH]cc(Cl)c2c1F)c1nnc(Cc2ccc3ncc(Cl)cc3c2)o1` [Example 43, N-((3-chloro-4-fluoro-1H-indol-5-yl)methyl)-5-((3-chloroquinolin-6-yl)methyl)-1,3,4-oxadiazole-2-carboxamide], for which the half-inhibitory concentration (IC50) was 0.1 to 1 µM. As for `O=C(NCc1cc2c(Cl)c[nH]c2cc1F)c1nnc(Cc2ccc3ncc(Cl)cc3c2)o1` [Example 44, N-((3-chloro-6-fluoro-1H-indol-5-yl)methyl)-5-((3-chloroquinolin-6-yl)methyl)-1,3,4-oxadiazole-2-carboxamide], the IC50 was in the range of 0.1 to 1 µM. For `O=C(NCc1cnc2[nH]cc(Cl)c2c1)c1nnc(Cc2ccc3ncc(Cl)cc3c2)o1` [Example 45, N-((3-chloro-1H-pyrrolo[2,3-b]pyridin-5-yl)methyl)-5-((3-chloroquinolin-6-yl)methyl)-1,3,4-oxadiazole-2-carboxamide], the IC50 is 0.1 to 1 µM. On the same count and under the same terms, the value for `Nc1nccc2cc(CNC(=O)c3nnc(Cc4ccc5ncc(Cl)cc5c4)o3)ccc12` [Example 46, N-((1-aminoisoquinolin-6-yl)methyl)-5-((3-chloroquinolin-6-yl)methyl)-1,3,4-oxadiazole-2-carboxamide] was 0.1 to 1 µM. `N#Cc1nn(Cc2ccc3ncc(Cl)cc3c2)cc1C(=O)NCc1ccc2[nH]cc(Cl)c2c1F` [Example 47, N-((3-chloro-4-fluoro-1H-indol-5-yl)methyl)-1-((3-chloroquinolin-6-yl)methyl)-3-cyano-1H-pyrazole-4-carboxamide]: the half-inhibitory concentration (IC50) was in the range of 0.1 to 1 µM. As to `N#Cc1nn(Cc2ccc3ncc(Cl)cc3c2)cc1C(=O)NCc1n[nH]c2ccc(Cl)cc12` [Example 48, N-((5-chloro-1H-indazol-3-yl)methyl)-1-((3-chloroquinolin-6-yl)methyl)-3-cyano-1H-pyrazole-4-carboxamide], the IC50 was in the range of 0.1 to 1 µM. Regarding `N#Cc1nn(Cc2ccc3ncc(Cl)cc3c2)cc1C(=O)NCc1ccc2c(N)nccc2c1` [Example 49, N-((1-aminoisoquinolin-6-yl)methyl)-1-((3-chloroquinolin-6-yl)methyl)-3-cyano-1H-pyrazole-4-carboxamide], the half-maximal inhibitory concentration (IC50) was less than 0.1 µM.

For `N#Cc1nn(Cc2ccc3ncc(Cl)cc3c2)cc1C(=O)NCc1cnc2[nH]cc(Cl)c2c1` [Example 50, N-((3-chloro-1H-pyrrolo[2,3-b]pyridin-5-yl)methyl)-1-((3-chloroquinolin-6-yl)methyl)-3-cyano-1H-pyrazole-4-carboxamide], the IC50 fell in the range of 0.1 to 1 µM. Regarding `N#Cc1nn(Cc2ccc3ncc(Cl)cc3c2)cc1C(=O)NCc1cc2c(Cl)c[nH]c2cc1F` [Example 51, N-((3-chloro-6-fluoro-1H-indol-5-yl)methyl)-1-((3-chloroquinolin-6-yl)methyl)-3-cyano-1H-pyrazole-4-carboxamide], the IC50 was 0.1 to 1 µM. Take `N#Cc1nn(Cc2cc(F)c3ncc(Cl)cc3c2)cc1C(=O)NCc1cc2c(Cl)c[nH]c2cc1F` [Example 53, N-((3-chloro-6-fluoro-1H-indol-5-yl)methyl)-1-((3-chloro-8-fluoroquinolin-6-yl)methyl)-3-cyano-1H-pyrazole-4-carboxamide]: the IC50 is less than 0.1 µM. Same read-out and setting: in the case of `N#Cc1nn(Cc2cc(F)c3ncc(Cl)cc3c2)cc1C(=O)NCc1n[nH]c2ccc(Cl)cc12` [Example 55, N-((5-chloro-1H-indazol-3-yl)methyl)-1-((3-chloro-8-fluoroquinolin-6-yl)methyl)-3-cyano-1H-pyrazole-4-carboxamide] it was 0.1 to 1 µM; in that of `N#Cc1nn(Cc2cc(F)c3ncc(Cl)cc3c2)cc1C(=O)NCc1cnc2[nH]cc(Cl)c2c1` [Example 56, N-((3-chloro-1H-pyrrolo[2,3-b]pyridin-5-yl)methyl)-1-((3-chloro-8-fluoroquinolin-6-yl)methyl)-3-cyano-1H-pyrazole-4-carboxamide], less than 0.1 µM; in that of `N#Cc1nn(Cc2cc(F)c3ncc(Cl)cc3c2)cc1C(=O)NCc1ccc2[nH]cc(Cl)c2c1F` [Example 57, N-((3-chloro-4-fluoro-1H-indol-5-yl)methyl)-1-((3-chloro-8-fluoroquinolin-6-yl)methyl)-3-cyano-1H-pyrazole-4-carboxamide], 0.1 to 1 µM.

Consider `Cc1cc(N)nc(C)c1CNC(=O)c1cn(Cc2cc(S(N)(=O)=O)c3ncc(Cl)cc3c2)nc1C#N` [Example 60, N-((6-amino-2,4-dimethylpyridin-3-yl)methyl)-1-((3-chloro-8-sulfamoylquinolin-6-yl)methyl)-3-cyano-1H-pyrazole-4-carboxamide], for which the IC50 is less than 0.1 µM. Still for that read-out and setting: in the case of `Cc1cnc2c(C#N)cc(Cn3cc(C(=O)NCc4c(C)cc(N)nc4C)c(C(N)=O)n3)cc2c1` [Example 63, N4-((6-amino-2,4-dimethylpyridin-3-yl)methyl)-1-((8-cyano-3-methylquinolin-6-yl)methyl)-1H-pyrazole-3,4-dicarboxamide] it was 0.1 to 1 µM; in that of `Cc1cc(N)nc(C)c1CNC(=O)c1cn(Cc2cc(S(C)(=O)=O)c3ncc(Cl)cc3c2)nc1C#N` [Example 68, N-((6-amino-2,4-dimethylpyridin-3-yl)methyl)-1-((3-chloro-8-(methylsulfonyl)quinolin-6-yl)methyl)-3-cyano-1H-pyrazole-4-carboxamide], less than 0.1 µM; in that of `Cc1cc(N)nc(C)c1CNC(=O)c1cnn(Cc2cc(F)c3ncc(Cl)cc3c2)c1C#N` [Example 70, N-((6-amino-2,4-dimethylpyridin-3-yl)methyl)-1-((3-chloro-8-fluoroquinolin-6-yl)methyl)-5-cyano-1H-pyrazole-4-carboxamide], greater than 10 µM.

With `Cc1cc(N)nc(C)c1CNC(=O)c1cnn(Cc2cc(F)c3ncc(Cl)cc3c2)c1C(N)=O` [Example 71, N4-((6-amino-2,4-dimethylpyridin-3-yl)methyl)-1-((3-chloro-8-fluoroquinolin-6-yl)methyl)-1H-pyrazole-4,5-dicarboxamide], the concentration for half-maximal inhibition (IC50) is greater than 10 µM. `Cc1cc(N)nc(C)c1CNC(=O)c1cn(Cc2cc(C(N)=O)c3ncc(Cl)cc3c2)nc1C#N` [Example 72, 6-((4-(((6-amino-2,4-dimethylpyridin-3-yl)methyl)carbamoyl)-3-cyano-1H-pyrazol-1-yl)methyl)-3-chloroquinoline-8-carboxamide]: the concentration for half-maximal inhibition (IC50) is less than 0.1 µM.
